{"source": "patent US20100137315A1", "about": "“Sphingosine Kinase Inhibitors and Methods of Their Use” (APOGEE BIOTECHNOLOGY CORPORATION, priority 2005, published 2010)", "target": "EFGR (Homo sapiens, UniProt P00533)", "sequence (P00533 25-1210)": "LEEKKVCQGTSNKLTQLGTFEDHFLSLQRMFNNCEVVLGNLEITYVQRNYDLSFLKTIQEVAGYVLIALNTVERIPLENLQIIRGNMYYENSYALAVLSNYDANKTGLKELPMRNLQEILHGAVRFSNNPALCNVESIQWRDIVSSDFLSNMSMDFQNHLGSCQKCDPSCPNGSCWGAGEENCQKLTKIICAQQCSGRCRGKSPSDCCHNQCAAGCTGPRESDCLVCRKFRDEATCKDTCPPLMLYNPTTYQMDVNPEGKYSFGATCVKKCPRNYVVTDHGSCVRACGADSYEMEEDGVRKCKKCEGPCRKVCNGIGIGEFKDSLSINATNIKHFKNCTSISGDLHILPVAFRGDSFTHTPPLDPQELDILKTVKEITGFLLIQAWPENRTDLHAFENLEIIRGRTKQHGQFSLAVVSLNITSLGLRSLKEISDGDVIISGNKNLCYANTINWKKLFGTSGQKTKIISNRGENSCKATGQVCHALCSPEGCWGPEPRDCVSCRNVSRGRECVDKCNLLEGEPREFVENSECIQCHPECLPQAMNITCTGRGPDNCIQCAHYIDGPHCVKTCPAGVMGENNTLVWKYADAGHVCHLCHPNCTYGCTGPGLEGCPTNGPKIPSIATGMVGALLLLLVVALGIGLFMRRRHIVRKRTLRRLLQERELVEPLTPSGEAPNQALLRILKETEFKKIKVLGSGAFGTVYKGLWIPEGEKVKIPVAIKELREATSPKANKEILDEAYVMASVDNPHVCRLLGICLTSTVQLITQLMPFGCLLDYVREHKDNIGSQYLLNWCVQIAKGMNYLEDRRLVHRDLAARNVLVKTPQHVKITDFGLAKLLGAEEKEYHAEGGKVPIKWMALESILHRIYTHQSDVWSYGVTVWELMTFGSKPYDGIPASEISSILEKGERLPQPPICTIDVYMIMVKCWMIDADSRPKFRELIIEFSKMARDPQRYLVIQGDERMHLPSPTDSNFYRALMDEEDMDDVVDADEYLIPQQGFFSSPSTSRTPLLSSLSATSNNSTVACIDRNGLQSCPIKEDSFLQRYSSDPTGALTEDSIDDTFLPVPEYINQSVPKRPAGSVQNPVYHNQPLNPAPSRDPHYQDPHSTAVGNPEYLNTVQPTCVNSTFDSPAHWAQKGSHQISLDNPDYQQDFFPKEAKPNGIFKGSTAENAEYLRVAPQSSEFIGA", "assay": "Kinase selectivity panel", "format": "biochemical", "details": "read-out: percent of control activity of EFGR", "procedure": "A common problem with previous attempts to develop protein kinase inhibitors is the lack of selectivity toward the target kinase since the majority of these compounds interact with nucleotide-binding domains that are highly conserved among kinases. To determine if compound of this invention are non-selective kinase inhibitors, the effects of the SK inhibitor, Compound 73, on a diverse panel of 20 purified kinases was determined. The compound was tested at a single concentration of 50 μM."}
{"smiles": "Clc1ccc(-c2csc(NCc3ccccc3)n2)cc1", "note": "[Compound 73, Benzyl-[4-(4-chloro-phenyl)-thiazol-2-yl]-amine]", "values": [{"measurement": "remaining activity at 50 µM", "value": "99 ± 9", "unit": "%"}]}
